Consider 13 compounds from patent publication US10329309B2, “3-(3H-imidazo[4,5-B]pyridin-2-yl)-1H-pyrazolo[4,3-B]pyridines and therapeutic uses thereof” (Samumed, LLC, priority 2015, dated 2019).

pEC50: −log10 of the molar value.

Common to all, as to format: cell-based
Experiment [1] concerns Wnt activity (Sp5-Luc reporter, SW480 colon carcinoma cells). The experiment in a line: Screening assay for Wnt activity: Sp5-Luc reporter gene assay in SW480 cells. Particulars: Homo sapiens, overnight incubation, 10-point dose-response from 10 μM. The essentials: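 Luminescence (BrightGlo) read after overnight 37 °C exposure of Sp5-Luc SW480 reporter cells, 4,000/well in 1% FBS, to compound dosed 1:3 over 10 points from 10 μM with 0.1% DMSO. Values normalized to DMSO-only cells, fitted with variable-slope four-parameter model; where EC50 exceeds 10 μM, % inhibition at 10 μM reported.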
For orientation: Reporter assays use an easily measured gene product as a stand-in for the process of interest.

In the next experiment the test system is SW480 colon cancer cells. The experiment in a line: Cell viability assay (CellTiter-Blue), four days. Particulars: Homo sapiens, 96 h; for pEC50: CellTiter-Blue cell viability; for inhibition at 10 µM: read-out: percent inhibition at 10 μM (given for EC50 of >10 μM). The procedure, abridged:
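4-day exposure, 37 °C/5% CO2; ~2×10^3 SW480 cells/well; 8-pt 1:3 curve, 10–0.0045 μM, duplicates vs DMSO controls. Resazurin→resorufin fluorescence readout, ~3 h. EC50 by nonlinear fit; if >10 μM, % inhibition at 10 μM reported.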
For orientation: Resazurin is reduced to fluorescent resorufin, in cell work by metabolically active cells.

Experiment [2] relates to primary human mesenchymal stem cells (hMSCs). The experiment in a line: Induction of chondrogenesis in primary human mesenchymal stem cells (nodule imaging, Rhodamine B/Nile Red). The conditions noted are these: hMSC chondrogenesis; for Emax: TGF-β3 as positive control, read-out: Max. Activity as % TGF-β3 activity; for EC50: concentration required to induce 50% levels of chondrogenesis vs TGF-β3, read-out: Conc (nM) of 50% TGF-β3 activity. The essentials:
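hMSCs (passage 3–6) in incomplete chondrogenic induction medium were dosed at 2700–10 nM (96-well, 6-point) or 5000–2.2 nM (384-well, 8-point), 0.03% DMSO final, for 6 days at 37° C. Fixed nodules stained with Rhodamine B/Nile Red were imaged; nodule area normalized to DMSO wells gave EC50, maximum activity and dose at maximum, with TGF-β3 (10 ng/mL) as positive control.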

As usually defined, the pEC50 is −log10 of the EC50, conventionally taken in molar units. Higher therefore signals a small EC50. By inhibition is commonly meant the relative decrease from the control value, in per cent.

Regarding `Cc1ncc(-c2ccc3[nH]nc(-c4nc5c(-c6cccc(F)c6)ccnc5[nH]4)c3n2)n1C` [Compound 509, 5-(1,2-dimethyl-1H-imidazol-5-yl)-3-(7-(3-fluorophenyl)-3H-imidazo[4,5-b]pyridin-2-yl)-1H-pyrazolo[4,3-b]pyridine], in experiment [1], the pEC50 is 6.92. Moreover, in the experiment on SW480 colon cancer cells, the pEC50 was 6.94. In addition, in experiment [2], the Emax stood at 97% and the EC50 amounted to 10 nM.
As to `NC1CN(c2cncc(-c3ccc4[nH]nc(-c5nc6c(-c7cccc(F)c7)ccnc6[nH]5)c4n3)n2)C1` [Compound 510, 1-(6-(3-(7-(3-fluorophenyl)-3H-imidazo[4,5-b]pyridin-2-yl)-1H-pyrazolo[4,3-b]pyridin-5-yl)pyrazin-2-yl)azetidin-3-amine], the pEC50 was 5.43 in experiment [1] and 5.80 with SW480 colon cancer cells. Besides, in experiment [2], the Emax is 46%.
Regarding `CN(C)CCOc1cncc(-c2ccc3[nH]nc(-c4nc5c(-c6cccc(F)c6)ccnc5[nH]4)c3n2)c1` [Compound 515, 2-((5-(3-(7-(3-fluorophenyl)-3H-imidazo[4,5-b]pyridin-2-yl)-1H-pyrazolo[4,3-b]pyridin-5-yl)pyridin-3-yl)oxy)-N,N-dimethylethan-1-amine], the values for the pEC50 (in experiment [1]; with SW480 colon cancer cells) were 5.55 and 5.96, respectively. For the same compound, in experiment [2], the Emax turned out to be 45%.
For `COc1cncc(-c2ccc3[nH]nc(-c4nc5c(-c6cccc(F)c6)ccnc5[nH]4)c3n2)c1` [Compound 516, 3-(7-(3-fluorophenyl)-3H-imidazo[4,5-b]pyridin-2-yl)-5-(5-methoxypyridin-3-yl)-1H-pyrazolo[4,3-b]pyridine], the pEC50 in experiment [1] is 6.47; in the experiment with SW480 colon cancer cells, 6.92. Besides, the Emax in experiment [2] was 47%.
Turning to `Oc1cncc(-c2ccc3[nH]nc(-c4nc5c(-c6cccc(F)c6)ccnc5[nH]4)c3n2)c1` [Compound 517, 5-(3-(7-(3-fluorophenyl)-3H-imidazo[4,5-b]pyridin-2-yl)-1H-pyrazolo[4,3-b]pyridin-5-yl)pyridin-3-ol], the pEC50 in experiment [1] was 6.37. The compound also gave a pEC50 with SW480 colon cancer cells of 6.11. Besides, in experiment [2], the Emax worked out at 59% and the EC50 came to 2 nM.
In the case of `Fc1cccc(-c2ccnc3[nH]c(-c4n[nH]c5ccc(-c6cnccn6)nc45)nc23)c1` [Compound 520, 3-(7-(3-fluorophenyl)-3H-imidazo[4,5-b]pyridin-2-yl)-5-(pyrazin-2-yl)-1H-pyrazolo[4,3-b]pyridine], the pEC50 in experiment [1] is 5.44. Moreover, the pEC50 in the experiment with SW480 colon cancer cells was 5.69. For the same compound, in experiment [2], the Emax came to 63% and the EC50 is 2 nM.
Compound `CN(C)CC(=O)Nc1cncc(-c2ccc3[nH]nc(-c4nc5c(-c6cccc(F)c6)ccnc5[nH]4)c3n2)c1` [Compound 969, 2-(dimethylamino)-N-(5-(3-(7-(3-fluorophenyl)-3H-imidazo[4,5-b]pyridin-2-yl)-1H-pyrazolo[4,3-b]pyridin-5-yl)pyridin-3-yl)acetamide] showed a pEC50 in experiment [1] of 5.36. Also, in the experiment on SW480 colon cancer cells, the pEC50 was under 5.00 and the inhibition at 10 µM stood at 27.7%. In experiment [2], the Emax was 72% and the EC50 was found to be 7 nM.
Turning to `COc1cccc(-c2ccnc3[nH]c(-c4n[nH]c5ccc(-c6cccnc6)nc45)nc23)c1` [Compound 994, 3-(7-(3-methoxyphenyl)-3H-imidazo[4,5-b]pyridin-2-yl)-5-(pyridin-3-yl)-1H-pyrazolo[4,3-b]pyridine], the pEC50 in experiment [1] was 5.73; in the experiment with SW480 colon cancer cells, 6.05. In addition, the Emax in experiment [2] was 50%. For the same compound, in experiment [2], the EC50 came to 100 nM.
With `COc1cccc(-c2ccnc3[nH]c(-c4n[nH]c5ccc(-c6cncc(NC(=O)Cc7ccccc7)c6)nc45)nc23)c1` [Compound 1000, N-(5-(3-(7-(3-methoxyphenyl)-3H-imidazo[4,5-b]pyridin-2-yl)-1H-pyrazolo[4,3-b]pyridin-5-yl)pyridin-3-yl)-2-phenylacetamide], the values for the negative-log EC50 (pEC50) (in experiment [1]; in the experiment on SW480 colon cancer cells) were 5.55 and 5.96, respectively. For the same compound, the Emax in experiment [2] is 46%.
Compound `CC(C)CC(=O)Nc1cncc(-c2ccc3[nH]nc(-c4nc5c(-c6ccc(Cl)s6)ccnc5[nH]4)c3n2)c1` [Compound 1037, N-(5-(3-(7-(5-chlorothiophen-2-yl)-3H-imidazo[4,5-b]pyridin-2-yl)-1H-pyrazolo [4,3-b]pyridin-5-yl)pyridin-3-yl)-3-methylbutanamide] had a pEC50 in experiment [1] of 5.83. In addition, the pEC50 with SW480 colon cancer cells was 6.96. In experiment [2], the Emax was determined as 67% and the EC50 was 10 nM.
As for `CC(C)(C)C(=O)Nc1cncc(-c2ccc3[nH]nc(-c4nc5c(-c6ccc(Cl)s6)ccnc5[nH]4)c3n2)c1` [Compound 1043, N-(5-(3-(7-(5-chlorothiophen-2-yl)-3H-imidazo[4,5-b]pyridin-2-yl)-1H-pyrazolo [4,3-b]pyridin-5-yl)pyridin-3-yl)pivalamide], in experiment [1], the pEC50 was 6.19. For the same compound, in the experiment with SW480 colon cancer cells, the negative logarithm of the EC50 (pEC50) is under 5.00 and the inhibition at 10 µM came out at 14.5%. Further, in experiment [2], the Emax was determined as 65% and the EC50 was found to be 30 nM.
On to `Clc1ccc(-c2ccnc3[nH]c(-c4n[nH]c5ccc(-c6cncc(CN7CCCC7)c6)nc45)nc23)s1` [Compound 1049, 3-(7-(5-chlorothiophen-2-yl)-3H-imidazo[4,5-b]pyridin-2-yl)-5-(5-(pyrrolidin-1-ylmethyl)pyridin-3-yl)-1H-pyrazolo[4,3-b]pyridine], for which the pEC50 in experiment [1] was 5.11. Besides, the pEC50 with SW480 colon cancer cells was 5.56. In experiment [2], the Emax came to 74% and the EC50 amounted to 10 nM.
For `O=C(Nc1cncc(-c2ccc3[nH]nc(-c4nc5c(-c6ccc(Cl)s6)ccnc5[nH]4)c3n2)c1)C1CCC1` [Compound 1056, N-(5-(3-(7-(5-chlorothiophen-2-yl)-3H-imidazo[4,5-b]pyridin-2-yl)-1H-pyrazolo [4,3-b]pyridin-5-yl)pyridin-3-yl)cyclobutanecarboxamide], the pEC50 in experiment [1] was 6.45; with SW480 colon cancer cells, 6.96. Further, the Emax in experiment [2] worked out at 102%. Further, the EC50 in experiment [2] amounted to 10 nM.
